We go through four molecules from patent US20210093531A1, “DERIVATIVES OF MENTHOL AND USES THEREOF” (Board of Trustees of Northern Illinois University, priority 2019, published 2021).

The conditions of test [1]: taste dilution tests; cited from earlier work.
For a further test, the system named is trained panelists. The test can be described thus: time-intensity analysis of cooling, beverage model system. The class given is in vivo. The conditions noted are these: 100 ppm, 2-minute window. The method, then: In order to evaluate the potential use of menthol glycinates as […] different food, beverage and oral hygiene products, select compounds were incorporated in different application systems. A beverage model system, a lozenge and a mouthwash application were created, and time-intensity analysis was performed using trained discrimination analysis panelists. Time-Intensity (TI) is a temporal sensory method. During TI evaluations, assessors are asked to score the intensity of perception of a single attribute over consumption of the product. Compared to single point measurements, TI analysis can characterize the onset, decline and rates thereof, of particular sensory characteristics. This analysis may reveal rich information regarding the intensity of an attribute over the time domain and identify temporal perceptual differences among samples that can greatly impact the overall profile of a product. For each sample evaluation, a temporal curve is generated, based on duplication. The temporal curves for each panelist are combined to generate a combined curve for each product that is evaluated. The following distinct parameters were calculated: Imax: peak intensity or maximum observed intensity on the whole curve; […]: time point where the reaction to the stimulus is first perceived on the curve; Tmax: time position of the peak intensity on the curve; Tplateau: protraction of maximum intensity or duration of maximum intensity; Text: time point of extinction of the perception of the stimulus, defined as the position in time after the peak intensity where the measured intensity disappears (or the end of evaluation window); Iext: intensity at time of extinction or end of evaluation; R increase: slope or rate of intensity increase between […] and Tmax; R decrease: slope or rate of intensity decrease between Tmax and Text; and Area: the total area under the time-intensity curve. The formula detailed in Table 6 was employed to create a simple beverage model system to evaluate menthol glycinates of interest using time-intensity analysis. [table] For time-intensity (T-I) evaluation of the cooling attribute of the model beverage system 8 panelists were recruited (2 male, 6 female). Panelists were trained in basic taste descriptive analysis. A sweetness reference series (intensity range 2-12) was provided to be used as cross-modality reference to aid in scaling the intensity of the cool attribute present in the model beverage samples. Panelists evaluated samples in duplicates and all sample were presented blinded and in a randomized order using a 3-digit code. Panelists were instructed to hold the sample in their mouths for 30 seconds and then expectorate. During the hold period panelists were instructed to note cooling onset and intensity. After expectorating, the panelists continued to report cooling intensity at predetermined time points throughout an evaluation window of 2 minutes. Samples were presented pre-weighted, and panelists were instructed to evaluate the entire amount of sample to ensure uniformity among panelists and replicate evaluations. Evaluations were performed with at least 4 hours between them to ensure no carry over. Data analysis for generation of T-I statistics and ANOVA analysis to determine significant difference among samples was performed using R STUDIO.

Marks after values point to notes of the source that are not given here.

As for `CC1CCC(C(C)C)C(O)C1` (stereo not shown) [Menthol, menthol], in test [1], the cooling threshold is on record as 0.8 ppm. Further, the “Imax (peak cooling intensity)” value in the test with trained panelists (2% propylene glycol in water) is 5^a. Moreover, in the test on trained panelists, the AUC is reported as 429.1^a, the Rdec was 0.03^a, the Rinc is on record as 0.12^a and the “Tplateau (duration of maximum intensity)” value is given as 23.3^a. The Tstart with trained panelists is given as 10^a.

As for “(1R,2S,5R)-2-Isopropyl-5-methylcyclohexyl 2-(isopropylamino)acetate [Product 7]”, in the test with trained panelists, the Rdec is 0.02^a, the Rinc is given as 0.06^b and the Tstart is given as 16^c.

For the molecule `CCCCN(CCCC)CC(=O)O[C@@H]1C[C@H](C)CC[C@H]1C(C)C` [Product 10, (1R,2S,5R)-2-Isopropyl-5-methylcyclohexyl 2-(dibutylamino)acetate], in the test on trained panelists, the Rdec is 0.06^a, the Rinc is given as 0.04^b and the Tstart is 6.1^b.

As for `CC(C)[C@@H]1CC[C@@H](C)C[C@H]1OC(=O)CN(C)C(C)C` [Product 16, (1R,2S,5R)-2-Isopropyl-5-methylcyclohexyl 2-(isopropyl(methyl)amino)acetate], in the test with trained panelists, the Rdec is listed as 0.02^a, the Rinc is recorded as 0.05^b and the Tstart was 16^c.
